From patent US10975352B2, “Methods of enhancing cell survival of stem cells” (The Scripps Research Institute, priority 2008, dated 2021) come the findings set out here.

Test [1] deals with hESCs. The experiment in a line: Cell death analysis of dissociated hESCs in suspension culture. The class given is cell-based, human. From the text:
hESCs are known to be difficult in forming embryoid bodies (EBs) in suspension culture after single cell dissociation due to extensive cell death. Thus, we also tested whether Tzv or Ptn could promote survival of dissociated hESCs in suspension. […] Because cell aggregation is most often mediated through cell-cell adhesions and E-cadherin is the primary cell-cell adhesion molecule, as well as highly expressed in hESCs (Eastham, A. M. et al., Cancer Res 67 (23): 11254-11262 (2007)), we tested the effect of a specific E-cadherin blocking antibody on multicellular aggregate formation.
The hESCs under different treatments were dissociated by trypsin and fixed by 4% paraformaldehyde. And the staining was carried out according to the manufacturer's instructions (MBL Laboratories, Watertown, Mass.). After staining, samples were analysed by flow cytometry using a FACS Calibur flow cytometer (BD).

The subject of test [2] is hESCs. The experiment in a line: Cell adhesion assay. The class given is cell-based, human. As to the method:
Cell adhesion assays were performed in 96-well microtiter plates coated with Matrigel. After trypsin, hESCs were resuspended in the chemically-defined media containing the desired compounds. Cells were then added to the microtiter wells and incubated for 3 h at 37° C. Unbound and loosely bound cells were removed by shaking and washing, and the remaining cells were then fixed immediately. The wells were washed 3 times with 200 μl of H2O, and attached cells were stained with Crystal Violet (Sigma). The absorbance of each well at 570 nm was then measured. For experiments with blocking antibodies, cells were pre-incubated with antibodies on ice for 30 min, and adhesion assays were performed in the presence of antibodies. Each sample was assayed independently for three times.

For test [3], the system named is E-cadherin. The experiment in a line: E-cadherin expression in hESCs after trypsin dissociation (Western blot, flow cytometry, RT-PCR). The class given is cell-based, human. An excerpt: We then examined E-cadherin expression in hESCs after trypsin dissociation. […] This observation was consistent with the report that the extracellular region of E-cadherin has an endoproteolytic cleavage site near the transmembrane domain (Damsky, C. H. et al., Cell 34 (2):455-466 (1983)). […] Therefore, Tzv is likely to affect cell adhesion by modulating cell surface level of E-cadherins. […] It is likely that Tzv exerts its effect through stabilization of E-cadherin on the cell surface.
To assess the expression of E-cadherin, activated integrin and SSEA4, dissociated cells (3×10^5) were washed with PBS and resuspended in PBS containing 2% goat serum. Cells were then incubated with the appropriate antibody for 1 h at 4° C., washed with the blocking solution, and labeled with FITC-conjugated secondary antibody for 30 min at 4° C. Cells were then washed and analyzed on a FACS Calibur flow cytometer.

Test [4] deals with E-cadherin. The experiment in a line: Endocytosis assay. The class given is cell-based, human. As to the method:
hESCs were incubated with 1.5 mg/ml sulfosuccinimidyl 2-(biotinamido) ethyl-dithioproprionate (sulfo-NHS-SS-biotin) (Pierce Chemical Co.) on ice, followed by washing and quenching. Endocytosis of E-cadherin was initiated by Ca^2+ depletion and 37° C. incubation. Cells were then incubated in two 20-min washes of glutathione solution (60 mM glutathione, 0.83 M NaCl, with 0.83 M NaOH and 1% BSA added before use) at 0° C. which removed all cell surface biotin groups. Remaining biotinylated proteins were sequestered inside cells by endocytosis and were therefore protected from glutathione stripping. Biotinylated proteins were recovered on streptavidin beads and analyzed by SDS-PAGE. E-Cadherins were detected by immunoblotting. Total level of surface E-cadherin before endocytosis was used as reference.

Test [5] relates to mouse P1 cortical explants. The experiment in a line: Axon outgrowth from mouse P1 cortical explants. The class given is cell-based. To be noted: 3 μM; added 20 minutes after plating; 4 days in culture; DMSO control. As to the method:
Compounds of formula I and III (i.e., Tvz and Ptn) are effective at promoting axonal regeneration and functional recovery in injured central nervous system. […] Tzv (3 μM) was tested on mouse P1 cortical explants, with axon outgrowth as an outcome read-out. Tzv was added to the medium 20 minutes after plating, with DMSO as a control. […] Accordingly, in some embodiments, a compound of the present invention is administered to an individual having a central nervous system injury or who is in need or would otherwise benefit from axonal regeneration.

The subject of test [6] is E-cadherins, EGFR1 and ERB2. Put plainly: Immunoprecipitation of E-cadherins with EGFR1 and Erb2. The class given is cell-based, human. From the text: Interplay between physical/structural environment and growth factor plays a very important role in cell fate regulation (Comoglio, P. M., Boccaccio, C., & Trusolino, L., Curr Opin Cell Biol 15 (5):565-571 (2003)). To examine whether growth factors are involved in integrin-mediated hESC survival, we treated dissociated hESCs with Tzv or Ptn together with individual highly specific growth factor receptor inhibitors. […] Similarly inhibition of FGFR, IGFR, EGFR1 or Erb2 also greatly abolished Tzv-induced hESC survival in suspension culture.
ALP detection kit and integrin antibodies were from Chemicon. AG825 (Erb2 inhibitor), AG1478 (EGFR inhibitor), PPP (IGFR1 inhibitor) were purchased from Calbiochem. Antibodies raised against the intracytoplasmic tail of E-cadherins (Transduction Laboratories, Lexington, Ky.) were used for immunoprecipitation. The antibody TS2/16 was from Pierce. Antibodies to the extracellular domain of E-cadherin molecule were from Zymed (Carlsbad). Antibodies against extracellular signal-regulated kinase/MAPK, EGFR1, ERB2, GADPH and phosphorylated form of AKT were from Cell Signaling. Mouse monoclonal anti-phosphotyrosine (4G-10 clone) was from Upstate Biotechnology. Ptn and Tzv were added to culture medium at 2 μM.

Take `O=C(NCc1ccccc1)c1csc(Nc2ccncn2)n1` [Tzv, N-benzyl-2-(pyrimidin-4-ylamino)thiazole-4-carboxamide]: in the test on hESCs [1], the “survival of dissociated hESCs in suspension culture” value is “greatly improved survival”. In the test with hESCs [2], the “adhesion of dissociated hESCs to Matrigel or laminin” value is given as “dramatically increased adhesion” and the “adhesion of hESCs to gelatin or poly-lysine” value is reported as “not affected”. In the test with E-cadherin [3] (flow cytometry), the “cell surface E-cadherins” value is recorded as “significantly increased”. Moreover, in the test on E-cadherin [3] (semiquantitative RT-PCR), the “E-cadherin transcripts vs mock controls” value was “comparable amounts”. For the same molecule, in the test on E-cadherin [3] (time-course Western blot), the “full-length E-cadherin expression after trypsin dissociation” value was “significantly increased”. Besides, the “internalization of E-cadherins” value with E-cadherin [4] is listed as “significantly blocked”. In addition, the axon outgrowth entry in test [5] is given as “dramatic effect in promoting axon outgrowth”. Further, the “binding of E-cadherins to EGFR1 and ERB2” value in test [6] was “induced binding of E-cadherins to EGFR1 and ERB2”.
